{"source": "patent US20240041028A1", "about": "“DELIVERY SYSTEM FOR PLANT PROTECTION” (Omya International AG, priority 2021, published 2024)", "system": "Botrytis cinerea strain SAS 56", "experiment": "Efficacy of pyrimethanil tablets against Botrytis on tomato fruits", "assay_type": "in vivo", "settings": "6 days after inoculation (6 dpi); active applied one day prior to inoculation, 80 μl per hole", "description": "• Tablets loaded with pyrimethanil (sample V3.3, 2.1 wt.-%, prepared according to Example 4) • Hydromagnesite tablets unloaded • Fungicide Espiro SC, commercially available from Omya Agro • Pure pyrimethanil powder, commercially available from Pluorochem Ltd • Five plastic trays with lids • Screwdriver • Eppendorf Pipette […] • Tomato fruits (calibration 47-57 mm) • Inoculum: Spore suspension of Botrytis cinerea strain SAS 56 (3×10^5 spores/ml), commercially available from DSMZ collection.\n• Treatment 1: Untreated check. • Treatment 2: Tablets loaded with pyrimethanil (sample V3.3, 2.1 wt.-%, prepared according to Example 4) (0.03 gr active/tablet). • Treatment 3: Unloaded hydromagnesite tablet. • Treatment 4: Fungicide Espiro (appl. rate 0.125% (v/v based on the total amount of prepared treatment solution (solution amount: 50 ml, see below), resulting in pyrimethanil active 400 gr/1). • Treatment 5: Pure pyrimethanil active diluted in ethanol of 99% purity.\n• Treatment 1: Only inoculum applied • Treatment 2: In 50 ml of water 1 tablet was dissolved. […]\nThree days after the inoculation the first symptoms in the untreated check were detected. […]", "data": [{"smiles": "Cc1cc(C)nc(Nc2ccccc2)n1", "note": "[Pyrimethanil]", "values": [{"measurement": "Botrytis spore germination / mycelium growth on tomato fruits", "value": "no mycelium was produced"}]}]}
